Measurements as given in ChEMBL document CHEMBL3046027, “In vitro and in vivo antifungal activity of synthetic pure isothiocyanates against Sclerotinia sclerotiorum” (Pest Manag Sci, 2011).

Assays:
[1] = system: Sclerotinia sclerotiorum; assay: Antifungal activity against Sclerotinia sclerotiorum assessed as inhibition of germination in volatile phase at 731 umol/l measured at 20 degC after 5 days; assay type: functional; conditions: 120 h
[2] = system: Sclerotinia sclerotiorum; assay: Antifungal activity against Sclerotinia sclerotiorum assessed as inhibition of germination in volatile phase at 1462 umol/l measured at 20 degC after 5 days; assay type: functional; conditions: 120 h
[3] = system: Sclerotinia sclerotiorum; assay: Fungistatic activity in Sclerotinia sclerotiorum assessed as inhibition of carpogenic germination in volatile phase at 1460 umol/l measured at 20 degC after 5 days relative to control; assay type: functional; conditions: 120 h
[4] = system: Sclerotinia sclerotiorum; assay: Fungistatic activity in Sclerotinia sclerotiorum assessed as inhibition of mycelial growth in contact phase measured at 20 degC after 5 days; assay type: functional, organism-based; conditions: 120 h
[5] = system: Sclerotinia sclerotiorum; assay: Antifungal activity against Sclerotinia sclerotiorum assessed as inhibition of mycelial growth in volatile phase at 1460 umol/l measured at 20 degC after 5 days; assay type: functional; conditions: 120 h, read-out: GI
[6] = system: Sclerotinia sclerotiorum; assay: Antifungal activity against Sclerotinia sclerotiorum assessed as inhibition of mycelial growth in volatile phase at 1024 umol/l measured at 20 degC after 5 days; assay type: functional; conditions: 120 h, read-out: GI
[7] = system: Sclerotinia sclerotiorum; assay: Fungistatic activity in Sclerotinia sclerotiorum assessed as sclerotial viability measured at 20 degC after 5 days; assay type: functional, organism-based; conditions: 120 h
[8] = system: Sclerotinia sclerotiorum; assay: Antifungal activity against Sclerotinia sclerotiorum assessed as inhibition of germination in volatile phase at 73 umol/l measured at 20 degC after 5 days; assay type: functional; conditions: 120 h
[9] = system: Sclerotinia sclerotiorum; assay: In vivo antifungal Sclerotinia sclerotiorum in Pepper (Capsicum annuum L. cv. Sera Demre) assessed as inhibition of mycelial growth in volatile phase at 146 umol/L measured after 10 to 14 weeks; assay type: functional
[10] = system: Sclerotinia sclerotiorum; assay: In vivo antifungal Sclerotinia sclerotiorum in Pepper (Capsicum annuum L. cv. Sera Demre) assessed as inhibition of mycelial growth in volatile phase at 292 umol/L measured after 10 to 14 weeks; assay type: functional
[11] = system: Sclerotinia sclerotiorum; assay: Antifungal activity against Sclerotinia sclerotiorum assessed as inhibition of mycelial growth in volatile phase at 73 umol/l measured at 20 degC after 5 days; assay type: functional; conditions: 120 h, read-out: GI
[12] = system: Sclerotinia sclerotiorum; assay: Antifungal activity against Sclerotinia sclerotiorum assessed as inhibition of mycelial growth in contact phase at 1316 umol/l measured at 20 degC after 5 days; assay type: functional; conditions: 120 h, read-out: GI
[13] = system: Sclerotinia sclerotiorum; assay: Antifungal activity against Sclerotinia sclerotiorum assessed as inhibition of mycelial growth in contact phase at 1024 umol/l measured at 20 degC after 5 days; assay type: functional; conditions: 120 h, read-out: GI
[14] = system: Sclerotinia sclerotiorum; assay: Fungistatic activity in Sclerotinia sclerotiorum assessed as inhibition of mycelial growth in contact phase at 4387 umol/l measured at 20 degC after 5 days relative to control; assay type: functional; conditions: 120 h, read-out: GI
[15] = system: Sclerotinia sclerotiorum; assay: Antifungal activity against Sclerotinia sclerotiorum assessed as inhibition of mycelial growth in contact phase at 4387 umol/l measured at 20 degC after 5 days; assay type: functional; conditions: 120 h, read-out: GI
[16] = system: Sclerotinia sclerotiorum; assay: Fungistatic activity in Sclerotinia sclerotiorum assessed as inhibition of carpogenic germination in volatile phase at 73 umol/l measured at 20 degC after 5 days relative to control; assay type: functional; conditions: 120 h
[17] = system: Sclerotinia sclerotiorum; assay: Antifungal activity against Sclerotinia sclerotiorum assessed as inhibition of mycelial growth in contact phase at 1462 umol/l measured at 20 degC after 5 days; assay type: functional; conditions: 120 h, read-out: GI
[18] = system: Sclerotinia sclerotiorum; assay: Fungitoxic activity in Sclerotinia sclerotiorum assessed as viability in volatile phase at 731 umol/l measured at 20 degC after 5 days relative to control; assay type: functional; conditions: 120 h, read-out: GI
[19] = system: Sclerotinia sclerotiorum; assay: Antifungal activity against Sclerotinia sclerotiorum assessed as inhibition of germination in volatile phase at 439 umol/l measured at 20 degC after 5 days; assay type: functional; conditions: 120 h
[20] = system: Sclerotinia sclerotiorum; assay: Fungistatic activity in Sclerotinia sclerotiorum assessed as inhibition of carpogenic germination in volatile phase at 732 umol/l measured at 20 degC after 5 days relative to control; assay type: functional; conditions: 120 h
[21] = system: Sclerotinia sclerotiorum; assay: Antifungal activity against Sclerotinia sclerotiorum assessed as inhibition of germination in volatile phase at 146 umol/l measured at 20 degC after 5 days; assay type: functional; conditions: 120 h
[22] = system: Sclerotinia sclerotiorum; assay: Antifungal activity against Sclerotinia sclerotiorum assessed as inhibition of mycelial growth in volatile phase at 146 umol/l measured at 20 degC after 5 days; assay type: functional; conditions: 120 h, read-out: GI
[23] = system: Sclerotinia sclerotiorum; assay: Antifungal activity against Sclerotinia sclerotiorum assessed as inhibition of mycelial growth in contact phase at 2924 umol/l measured at 20 degC after 5 days; assay type: functional; conditions: 120 h, read-out: GI
[24] = system: Sclerotinia sclerotiorum; assay: Fungistatic activity in Sclerotinia sclerotiorum assessed as inhibition of carpogenic germination in volatile phase at 146 umol/l measured at 20 degC after 5 days relative to control; assay type: functional; conditions: 120 h
[25] = system: Sclerotinia sclerotiorum; assay: Antifungal activity against Sclerotinia sclerotiorum assessed as inhibition of mycelial growth in volatile phase at 732 umol/l measured at 20 degC after 5 days; assay type: functional; conditions: 120 h, read-out: GI
[26] = system: Sclerotinia sclerotiorum; assay: Fungitoxic activity in Sclerotinia sclerotiorum assessed as inhibition of mycelial growth in volatile phase at 1024 umol/l measured at 20 degC after 5 days relative to control; assay type: functional; conditions: 120 h, read-out: GI
[27] = system: Sclerotinia sclerotiorum; assay: Fungistatic activity in Sclerotinia sclerotiorum assessed as inhibition of mycelial growth in volatile phase at 732 umol/l measured at 20 degC after 5 days relative to control; assay type: functional; conditions: 120 h, read-out: GI
[28] = system: Sclerotinia sclerotiorum; assay: Fungistatic activity in Sclerotinia sclerotiorum assessed as inhibition of mycelial growth in volatile phase measured at 20 degC after 5 days; assay type: functional, organism-based; conditions: 120 h

CN=C=S [METHYLISOTHIOCYANATE]
inhibition at 731 µM [1]: 100% | inhibition at 1462 µM [2]: 100% | inhibition at 1460 µM [3]: 67.5% | EC50 [4]: 168 µM | inhibition of growth at 1460 µM [5]: 100% | inhibition of growth at 1024 µM [6]: 100% | EC50 [7]: 336 µM | inhibition at 73 µM [8]: 0% | inhibition in vivo at 146 µM [9]: 55% | inhibition in vivo at 292 µM [10]: 85% | inhibition of growth at 73 µM [11]: 34.7% | inhibition of growth at 1316 µM [12]: 18.2% | inhibition of growth at 1024 µM [13]: 10.8% | inhibition of growth at 4387 µM [14]: 100% | inhibition of growth at 4387 µM [15]: 100% | inhibition at 73 µM [16]: 30% | inhibition of growth at 1462 µM [17]: 54.7% | inhibition of growth at 731 µM [18]: 100% | inhibition at 439 µM [19]: 66.7% | inhibition at 732 µM [20]: 35% | inhibition at 146 µM [21]: 6.7% | inhibition of growth at 146 µM [22]: 55.3% | inhibition of growth at 2924 µM [23]: 81.2% | inhibition at 146 µM [24]: 30% | inhibition of growth at 732 µM [25]: 100% | inhibition of growth at 1024 µM [26]: 100% | inhibition of growth at 732 µM [27]: 100% | EC50 [28]: 79 µM
